Measurements: ChEMBL document CHEMBL1125116 (J Med Chem, 1990)

Assays:
D(2) dopamine receptor [1] = target: T1, D(2) dopamine receptor (Rattus norvegicus, UniProt P61169); experiment: Competitive binding assay against Dopamine receptor D2 in rat striatal membranes and [125I]-IBF radioligand; type: cell membranes, Striatum, Membrane
D(2) dopamine receptor [2] = target: T1, D(2) dopamine receptor; experiment: Evaluated in vitro for the affinity towards Dopamine receptor D2 of rat striatal tissue

T1 sequence (P61169 whole entry): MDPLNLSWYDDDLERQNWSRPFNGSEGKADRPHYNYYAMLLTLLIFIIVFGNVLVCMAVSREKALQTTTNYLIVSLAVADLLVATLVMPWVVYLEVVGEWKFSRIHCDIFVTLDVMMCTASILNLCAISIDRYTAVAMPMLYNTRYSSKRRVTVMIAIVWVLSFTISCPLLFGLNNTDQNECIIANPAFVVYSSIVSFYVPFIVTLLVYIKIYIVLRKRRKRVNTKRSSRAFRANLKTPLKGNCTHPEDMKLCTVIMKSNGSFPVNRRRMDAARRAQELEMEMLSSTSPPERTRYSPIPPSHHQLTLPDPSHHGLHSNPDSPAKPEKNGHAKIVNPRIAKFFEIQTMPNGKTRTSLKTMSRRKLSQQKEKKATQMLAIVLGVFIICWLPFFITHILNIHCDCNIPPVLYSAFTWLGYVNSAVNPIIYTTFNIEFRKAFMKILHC

Row | Kd (D(2) dopamine receptor [2]) [µM] | Compound | Ki (D(2) dopamine receptor [1]) [µM]
1 | – | NC1CCc2cc(O)c(O)cc2C1 (racemic) | 0.0657
2 | 0.014 | COc1cc(N=[N+]=[N-])c(I)cc1C(=O)NC1CCN(Cc2ccccc2)CC1 [IODOAZIDOCLEBOPRIDE] | –
